We go through one molecule from patent US10292382B2, “No-spin cryopreservation technique and resulting products” (Biopredic International, priority 2014, dated 2019).

One data set concerns cells. Particulars: above 4° C.; cited from earlier work.

Protocol for Fresh human hepatocytes: In this Example, testing was carried out to determine the effect of different concentrations of DMSO (0 to 2%) on the cell plateability/attachment using the inventive, direct NS plating method.
Fresh human hepatocytes having 78% viability, corresponding generally to customary thawed cell viability, were plated with DMSO in concentrations ranging from 0 to 2%. The cells were plated without Percoll density gradient centrifugation for both classical and NS methods. The cell seeding density was 0.37 million cells/well (MW24 plate) for both classical & NS methods. The cells were evaluated for cell morphology, plateability, and metabolic activity.
The DMSO, as a cryoprotectant included in freezing medium, has been tested at final concentrations up to 2% in the cell plating medium.

Regarding `C[S+](C)[O-]` [DMSO, dimethyl sulfoxide], the “maximum tolerated DMSO percentage in hepatocyte-NS plating medium for cell attachment” value in the data set with Fresh human hepatocytes was “less than 1 % (v/v)”. Moreover, in the data set with cells, the “DMSO concentration demonstrated to be toxic” value was “up to 2%”.
